Assay results reported in patent US20260250250A1, “3-(SULPHONYL OR SULFONIMIDOYL)PROP-2-EN-1-YL]-2-OXO-1,2-DIHYDROPYRIDINE-3-CARBOXAMIDE DERIVATIVES” (Flinder Therapeutics B.V., priority 2022, published 2026).

What was measured:
[1] = target: T1, human E3 ubiquitin-protein ligase RNF31 (HOIP) (Homo sapiens, UniProt Q96EP0); assay: Cell-free HTRF-based HOIP inhibition assay; type: biochemical
T1 sequence (Q96EP0 695-1072 limits assumed): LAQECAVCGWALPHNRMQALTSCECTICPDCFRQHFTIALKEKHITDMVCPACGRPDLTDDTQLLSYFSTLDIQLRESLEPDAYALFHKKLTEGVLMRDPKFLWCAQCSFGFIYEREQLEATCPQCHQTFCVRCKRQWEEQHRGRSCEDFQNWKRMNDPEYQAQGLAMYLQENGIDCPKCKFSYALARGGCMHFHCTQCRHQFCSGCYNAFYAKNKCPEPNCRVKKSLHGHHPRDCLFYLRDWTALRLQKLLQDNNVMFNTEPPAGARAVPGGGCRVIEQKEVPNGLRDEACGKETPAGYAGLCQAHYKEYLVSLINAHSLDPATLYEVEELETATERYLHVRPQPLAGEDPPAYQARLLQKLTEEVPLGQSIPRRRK
Procedure: This assay was performed in the following steps: • a) synthesis of recombinant fragment of human E3 ubiquitin-protein ligase RNF31 (HOIP), expressed with purity >90% in E. coli system (the protein was prepared as 1 mg/mL stock in a standard formulation); • b) incubation of the compounds in a typical concentration range: 100-0.005 μM, at a final DMSO conc. 1% with a mixture of HOIP and ubiquitin activating enzyme E1 at 25° C., for 1 h at 25° C.; • c) followed by addition of a ubiquitination solution including E2 and substrates (the reaction proceeds for 2.5 h at 25° C.); and • d) HTRF detection was performed using a PHERAstar FSX (BMG Labtech) plate reader (excitation at 337 nm, dual emissions at 665 and 620 nm).

[2] = system: bladder carcinoma RT4 cell line; assay: TNF-α-induced cytotoxicity assay (CellTiter-Glo viability); type: cell-based; settings: Homo sapiens, RT-4, 72 h
Procedure: A viability assay, using bladder carcinoma RT4 cell line, was used for identifying the potential inhibitory effect of tested compounds on HOIP activity. The viability was determined by CellTiter-Glo Luminescent Cell Viability Assay (G7571, Promega) which measures the ability of generating a luminescent signal proportional to the amount of ATP present in living cells. The assay consists of a few steps: • a) the cells were routinely sub cultivated twice a week with standard complete growth medium composition; • b) cells were preparated for the assay by creating a cell suspension at the density of 0.05 mln cells/mL and dispensed into plates (ViewPlate-384, PerkinElmer) resulting in 1000 cells/well; • c) cells were stimulated with 1.25 ng/mL TNFα and with compounds and incubated for 72 h at 37° C. in the atmosphere with 5% CO2; and • d) for detection cytotoxicity was measured with CellTiter-Glo® Luminescent Cell Viability Assay based on the method described by the manufacturer.

NF-κB signaling pathway = assay: Cell-based dual luciferase NF-κB reporter assay (HEK293 cells, TNF stimulated); settings: Homo sapiens, HEK293
Procedure: Dual-luciferase reporter assay was designed to find inhibitors of HOIP affecting NF-κB signaling pathway. The assay was performed in HEK293 cells which were transfected with plasmids coding for Firefly and NanoLuc luciferases. The NanoLuc luciferase plasmid contains NF-κB response element which determines its expression.
The assay was run following standard dual-luciferase protocols. The assay consists of a few steps: • compounds were dispensed at a concentration range: 100-0.005 μM with a final DMSO concentration of 1% of final volume (25 μL); • cells were stimulated after 30 min with 2.5 ng/mL TNF; and • after 6 h Firefly and NanoLuc luciferase activities are determined according to the procedure described by the manufacturer of Nano-Glo Dual-Luciferase Reporter Assay System.

Row | Compound | IC50 [1] | IC50 [2] | IC50 (NF-κB signaling pathway)
1 | N=S(=O)(/C=C/CNC(=O)c1cc2c([nH]c1=O)CCCC2)c1ccc(N2CCCC2)cc1 (stereo not drawn) [Example 162, N-[(2E)-3-[imino(oxo)[4-(Pyrrolidin-1-yl)phenyl]-λ^6-sulfanyl]prop-2-en-1-yl]-2-oxo-1,2,5,6,7,8-hexahydroquinoline-3-carboxamide] | ≤ 100 nM | ≤ 1000 nM | 
2 | COc1ccc(S(=N)(=O)/C=C/CNC(=O)c2cc3cccnc3[nH]c2=O)cc1F (stereo not drawn) [Example 158, N-[(2E)-3-[(3-fluoro-4-methoxyphenyl)(imino)oxo-λ^6-sulfanyl]prop-2-en-1-yl]-2-oxo-1,2-dihydro-1,8-naphthyridine-3-carboxamide] | ≤ 1000 nM | ≤ 10000 nM | 
3 | N=S(=O)(/C=C/CNC(=O)c1cc2c([nH]c1=O)CCCC2)c1ccc(C2CCCCC2)cc1 (stereo not drawn) [Example 166, N-[(2E)-3-[(4-cyclohexylphenyl)(imino)oxo-λ^6-sulfanyl]prop-2-en-1-yl]-2-oxo-1,2,5,6,7,8-hexahydroquinoline-3-carboxamide] | ≤ 100 nM | ≤ 1000 nM | 
4 | COc1ccc(S(=N)(=O)/C=C/CNC(=O)c2cc3cnccc3[nH]c2=O)cc1F (stereo not drawn) [Example 159, N-[(2E)-3-[(3-fluoro-4-methoxyphenyl)(imino)oxo-λ^6-sulfanyl]prop-2-en-1-yl]-2-oxo-1,2-dihydro-1,6-naphthyridine-3-carboxamide] | ≤ 1000 nM | ≤ 100000 nM | 
5 | CNc1ccc(S(=N)(=O)/C=C/CNC(=O)c2cc3c([nH]c2=O)CCCC3)cc1 (stereo not drawn) [Example 174, N-[(2E)-3-{imino[4-(methylamino)phenyl]oxo-λ^6-sulfanyl}prop-2-en-1-yl]-2-oxo-1,2,5,6,7,8-hexahydroquinoline-3-carboxamide] | ≤ 1000 nM | ≤ 1000 nM | 
6 | COc1ccc(S(=N)(=O)/C=C/CNC(=O)c2cc3c([nH]c2=O)CCCC3)cc1 (stereo not drawn) [Example 57, N-[(2E)-3-[imino(4-methoxyphenyl)oxo-λ^6-sulfanyl]prop-2-en-1-yl]-2-oxo-1,2,5,6,7,8-hexahydroquinoline-3-carboxamide] |  | ≤ 1000 nM | ≤ 1000 nM
7 | N=S(=O)(/C=C/CNC(=O)c1cc2c([nH]c1=O)CCCC2)c1ccc(OC2CC2)cc1 (stereo not drawn) [Example 164, N-[(2E)-3-[(4-cyclopropoxyphenyl)(imino)oxo-λ^6-sulfanyl]prop-2-en-1-yl]-2-oxo-1,2,5,6,7,8-hexahydroquinoline-3-carboxamide] | ≤ 100 nM | ≤ 1000 nM | 
8 | N=S(=O)(/C=C/CNC(=O)c1cc2c([nH]c1=O)CCCC2)c1ccc(C(F)(F)F)cc1 (stereo not drawn) [Example 154, N-[(2E)-3-[imino(oxo)[4-(trifluoromethyl)phenyl]-λ^6-sulfanyl]prop-2-en-1-yl]-2-oxo-1,2,5,6,7,8-hexahydroquinoline-3-carboxamide] | ≤ 100 nM | ≤ 1000 nM | 
9 | COc1ccc(S(=N)(=O)/C=C/CNC(=O)c2cc3c([nH]c2=O)CCN(C(=O)OC2CCC(F)(F)CC2)C3)cc1F (stereo not drawn) [Example 183, 4,4-difluorocyclohexyl 3-{[(2E)-3-[(3-fluoro-4-methoxyphenyl) (imino)oxo-λ^6-sulfanyl]prop-2-en-1-yl]carbamoyl}-2-oxo-1,2,5,6,7,8-hexahydro-1,6-naphthyridine-6-carboxylate] | ≤ 100 nM | ≤ 10000 nM | 
10 | COc1ccc(S(=N)(=O)/C=C/CNC(=O)c2cc3c([nH]c2=O)C(C)(C)CCC3)cc1F (stereo not drawn) [Example 155, N-[(2E)-3-[(3-fluoro-4-methoxyphenyl)(imino)oxo-λ^6-sulfanyl]prop-2-en-1-yl]-8,8-dimethyl-2-oxo-1,2,5,6,7,8-hexahydroquinoline-3-carboxamide] | ≤ 10000 nM | ≤ 10000 nM | 
11 | CN(C)c1ccc(S(=N)(=O)/C=C/CNC(=O)c2cc3c([nH]c2=O)CCCC3)cc1 (stereo not drawn) [Example 141, N-[(2E)-3-{[4-(dimethylamino)phenyl](imino)oxo-λ^6-sulfanyl}prop-2-en-1-yl]-2-oxo-1,2,5,6,7,8-hexahydroquinoline-3-carboxamide] |  | ≤ 1000 nM | ≤ 1000 nM
12 | COc1ccc(S(=N)(=O)/C=C/CNC(=O)c2cc3c([nH]c2=O)CCC(C(C)C)C3)cc1F (stereo not drawn) [Example 144, N-[(2E)-3-[(3-fluoro-4-methoxyphenyl)(imino)oxo-λ^6-sulfanyl]prop-2-en-1-yl]-2-oxo-6-(propan-2-yl)-1,2,5,6,7,8-hexahydroquinoline-3-carboxamide] |  | ≤ 1000 nM | ≤ 1000 nM
13 | N#Cc1cc(S(=N)(=O)/C=C/CNC(=O)c2cc3c([nH]c2=O)CCCC3)ccc1N1CCCCC1 (stereo not drawn) [Example 173, N-[(2E)-3-{[3-cyano-4-(piperidin-1-yl)phenyl](imino)oxo-λ^6-sulfanyl}prop-2-en-1-yl]-2-oxo-1,2,5,6,7,8-hexahydroquinoline-3-carboxamide] | ≤ 100 nM | ≤ 1000 nM | 
14 | CC(C)(C)c1ccc(S(=O)(=O)/C=C/CNC(=O)c2cc3c([nH]c2=O)CCCC3)cc1 [Example 50, N-[(2E)-3-(4-tert-butylbenzenesulfonyl)prop-2-en-1-yl]-2-oxo-1,2,5,6,7,8-hexahydroquinoline-3-carboxamide] | ≤ 10000 nM |  | ≤ 10000 nM
15 | COc1ccc(CN2CCc3[nH]c(=O)c(C(=O)NC/C=C/S(=N)(=O)c4ccc(OC)c(F)c4)cc3C2)cc1 (stereo not drawn) [Example 171, N-[(2E)-3-[(3-fluoro-4-methoxyphenyl)(imino)oxo-λ^6-sulfanyl]prop-2-en-1-yl]-6-[(4-methoxyphenyl)methyl]-2-oxo-1,2,5,6,7,8-hexahydro-1,6-naphthyridine-3-carboxamide] | ≤ 1000 nM | ≤ 1000 nM | 
16 | N#Cc1cc(S(=N)(=O)/C=C/CNC(=O)c2cc3c([nH]c2=O)CCCC3)ccc1N1CCOCC1 (stereo not drawn) [Example 175, N-[(2E)-3-{[3-cyano-4-(morpholin-4-yl)phenyl](imino)oxo-λ^6-sulfanyl}prop-2-en-1-yl]-2-oxo-1,2,5,6,7,8-hexahydroquinoline-3-carboxamide] | ≤ 100 nM | ≤ 10000 nM | 
17 | COc1ccc(S(=N)(=O)/C=C/CNC(=O)c2cc3c([nH]c2=O)CCC(F)C3)cc1F (stereo not drawn) [Example 172, 6-fluoro-N-[(2E)-3-[(3-fluoro-4-methoxyphenyl)(imino)oxo-λ^6-sulfanyl]prop-2-en-1-yl]-2-oxo-1,2,5,6,7,8-hexahydroquinoline-3-carboxamide] | ≤ 1000 nM | ≤ 10000 nM | 
18 | N=S(=O)(/C=C/CNC(=O)c1cc2c([nH]c1=O)CCCC2)c1cccc(OC(F)(F)F)c1 (stereo not drawn) [Example 168, N-[(2E)-3-[imino(oxo)[3-(trifluoromethoxy)phenyl]-λ^6-sulfanyl]prop-2-en-1-yl]-2-oxo-1,2,5,6,7,8-hexahydroquinoline-3-carboxamide] | ≤ 100 nM | ≤ 1000 nM | 
19 | COc1ccc(S(=N)(=O)/C=C/CNC(=O)c2cc3c([nH]c2=O)CCN(C(=O)OC2CCCCC2)C3)cc1F (stereo not drawn) [Example 184, cyclohexyl 3-{[(2E)-3-[(3-fluoro-4-methoxyphenyl)(imino)oxo-λ^6-sulfanyl]prop-2-en-1-yl]carbamoyl}-2-oxo-1,2,5,6,7,8-hexahydro-1,6-naphthyridine-6-carboxylate] | ≤ 100 nM | ≤ 1000 nM | 
20 | CC(=O)Nc1ccc(S(=N)(=O)/C=C/CNC(=O)c2cc3c([nH]c2=O)CCCC3)cc1 (stereo not drawn) [Example 163, N-[(2E)-3-[(4-acetamidophenyl)(imino)oxo-λ^6-sulfanyl]prop-2-en-1-yl]-2-oxo-1,2,5,6,7,8-hexahydroquinoline-3-carboxamide] | ≤ 1000 nM | ≤ 100000 nM | 
21 | COc1ccc(S(=N)(=O)/C=C/CNC(=O)c2cc3c([nH]c2=O)CCN(CC2CC2)C3)cc1F (stereo not drawn) [Example 185, 6-(cyclopropylmethyl)-N-[(2E)-3-[(3-fluoro-4-methoxyphenyl) (imino)oxo-λ^6-sulfanyl]prop-2-en-1-yl]-2-oxo-1,2,5,6,7,8-hexahydro-1,6-naphthyridine-3-carboxamide] | ≤ 10000 nM | ≤ 100000 nM | 
